From ChEMBL document CHEMBL1134901, “Synthesis and activity of novel HIV protease inhibitors with improved potency against multiple PI-resistant viral strains” (Bioorg Med Chem Lett, 2002) come the findings set out here.

Data set [1] deals with T1, Human immunodeficiency virus type 1 protease (Human immunodeficiency virus 1, UniProt Q72874). Briefly: Inhibitory concentration against wild-type HIV-1 protease.
Data set [2] concerns Human immunodeficiency virus 1. Briefly: In vitro inhibition of spread of viral infection using 4X mutant virus. It counts as functional. The conditions noted are these: read-out: CIC95.
In data set [3] the test system is MT4. Briefly: Concentration required to inhibit the spread of viral infection in MT-4 human T-lymphoid cells infected by the NL4-3 virus. It counts as functional. The conditions noted are these: read-out: CIC95.
For data set [4], the system named is Human immunodeficiency virus 1. Briefly: Potency against PI-resistant viral isolate construct HIV Q-60C. It counts as functional. The conditions noted are these: read-out: CIC95.
Data set [5] is described as follows: Bioavailability in dog (dose 5 mg/kg p.o. and 2 mg/kg i.v.). It counts as ADME, organism-based, Canis lupus familiaris. Particulars: in vivo, po.
Data set [6] in a line: Intrinsic clearance in human liver microsomes. Type of data set: ADME, Microsome. (Microsomes from liver hold many membrane-bound enzymes, among them those of drug oxidation.)
The test system of data set [7] is Human immunodeficiency virus 1. In words: Potency against PI-resistant viral isolate construct HIV K-60C. Type of data set: functional. The conditions noted are these: read-out: CIC95.
In data set [8] the test system is Human immunodeficiency virus 1. Briefly: Potency against PI-resistant virus HIV 4X. It counts as functional. Particulars: read-out: CIC95.
Data set [9] in a line: Maximum concentration in dogs administered perorally (5 mg/kg) and intravenously (2 mg/kg). The conditions noted are these: dog, in vivo, po. Type of data set: ADME, organism-based, Canis lupus familiaris.
For data set [10], the target named is Cytochrome P450 2D6 (Homo sapiens, UniProt P10635). Briefly: Inhibition of cytochrome P450 2D6. Type of data set: ADME.
Data set [11] can be described thus: Plasma clearance in dogs administered perorally (5 mg/kg) and intravenously (2 mg/kg). Type of data set: ADME, organism-based, Canis lupus familiaris. The conditions noted are these: dog, iv, read-out: Clp.
Data set [12] is described as follows: Half life in dogs administered perorally (5 mg/kg) and intravenously (2 mg/kg). It counts as ADME, organism-based, Canis lupus familiaris. Particulars: dog, in vivo.
Data set [13] concerns Human immunodeficiency virus 1. In words: Potency against PI-resistant virus HIV NL-4. The conditions noted are these: read-out: CIC95. It counts as functional.
Data set [14] deals with Cytochrome P450 3A4 (Homo sapiens, UniProt P08684). Briefly: Inhibition of cytochrome P450 3A4. It counts as ADME.
For data set [15], the system named is Human immunodeficiency virus 1. In words: Potency against PI-resistant viral isolate construct HIV V-18C. Type of data set: functional. The conditions noted are these: read-out: CIC95.
Data set [16] in a line: Area under curve in dogs administered perorally (5 mg/kg) and intravenously (2 mg/kg). It counts as ADME, organism-based, Canis lupus familiaris. Particulars: dog, in vivo.
The target in data set [17] is T1, Human immunodeficiency virus type 1 protease. Briefly: Inhibitory concentration required to inhibit cleavage of a substrate by thewild-type HIV-1 protease enzyme.

Sequence of Cytochrome P450 3A4 (P08684 whole entry): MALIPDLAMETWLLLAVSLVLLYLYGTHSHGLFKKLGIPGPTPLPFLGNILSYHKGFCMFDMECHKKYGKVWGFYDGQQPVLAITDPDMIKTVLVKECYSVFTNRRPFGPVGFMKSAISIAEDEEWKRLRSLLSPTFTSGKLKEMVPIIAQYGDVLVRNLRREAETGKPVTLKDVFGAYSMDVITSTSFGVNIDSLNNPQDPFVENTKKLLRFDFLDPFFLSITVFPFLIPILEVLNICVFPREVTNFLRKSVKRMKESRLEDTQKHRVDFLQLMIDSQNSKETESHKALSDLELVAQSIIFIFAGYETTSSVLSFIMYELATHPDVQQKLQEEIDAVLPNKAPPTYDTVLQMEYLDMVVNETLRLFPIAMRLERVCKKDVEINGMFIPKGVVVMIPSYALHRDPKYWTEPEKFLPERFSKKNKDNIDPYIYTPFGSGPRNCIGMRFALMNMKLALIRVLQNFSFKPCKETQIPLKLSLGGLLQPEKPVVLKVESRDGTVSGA
Sequence of Cytochrome P450 2D6 (P10635 whole entry): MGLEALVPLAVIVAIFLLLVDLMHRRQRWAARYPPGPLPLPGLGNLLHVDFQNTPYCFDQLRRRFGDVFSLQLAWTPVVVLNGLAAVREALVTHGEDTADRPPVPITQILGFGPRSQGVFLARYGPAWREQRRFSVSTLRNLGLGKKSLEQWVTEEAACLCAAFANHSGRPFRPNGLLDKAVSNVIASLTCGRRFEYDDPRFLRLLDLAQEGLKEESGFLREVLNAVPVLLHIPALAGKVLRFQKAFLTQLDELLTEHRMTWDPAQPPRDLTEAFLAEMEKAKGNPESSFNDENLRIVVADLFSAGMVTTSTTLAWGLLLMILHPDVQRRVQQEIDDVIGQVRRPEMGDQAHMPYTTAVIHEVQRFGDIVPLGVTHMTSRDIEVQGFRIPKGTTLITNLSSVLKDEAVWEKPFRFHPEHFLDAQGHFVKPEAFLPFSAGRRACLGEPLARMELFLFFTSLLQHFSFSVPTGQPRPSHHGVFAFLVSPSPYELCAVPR

One may read the IC50 as the concentration that inhibits the measured activity by half. Read a high IC50 as lower potency. As for `CC(C)(c1cc2cnccc2o1)N1CCN(C[C@@H](O)C[C@@H](Cc2ccccc2)C(=O)N[C@H]2c3ccccc3OC[C@H]2O)[C@H](C(=O)NCCC(F)(F)F)C1`, the midpoint of inhibition in data set [1], the IC50, lay at 1.6 nM. Further, the IC95 turned out to be 500 nM in data set [2] and 62 nM in data set [3].
On the same counts, the results for `CC(C)(C)CNC(=O)[C@@H]1CN(C(C)(C)c2cc3cnccc3o2)CCN1C[C@@H](O)C[C@@H](Cc1ccccc1)C(=O)N[C@H]1c2ccccc2OC[C@H]1O` are 1.16 nM, 500 nM and 31 nM.
In the case of `CC(C)(c1cc2cnccc2o1)N1CCN(C[C@@H](O)C[C@@H](Cc2ccccc2)C(=O)N[C@H]2c3ccccc3OC[C@H]2O)[C@H](C(=O)NC2CCCC2)C1`, the IC50 in [1] came to 0.37 nM. Further, the results for the IC95 in data set [2] and in data set [3] were 31 nM and no more than 8 nM, respectively.
Usually bioavailability stands for dose-corrected exposure relative to a reference, in per cent. A lower bioavailability goes with little systemic uptake. The CLint scaled is the rate of metabolic loss divided by the concentration. Read a high CLint scaled as rapid turnover. In general, Cmax refers to the highest concentration seen after dosing. In general, half-life refers to how long it takes for the measured level to halve. A higher half-life goes with slow decline. As a reminder, the AUC is concentration integrated over time. The low end stands for less exposure, the high end for more exposure. For the compound `CC(C)(c1cc2cnccc2o1)N1CCN(C[C@@H](O)C[C@@H](Cc2ccccc2)C(=O)N[C@H]2c3ccccc3OC[C@H]2O)[C@H](C(=O)NCC(F)(F)F)C1`, the figures for the IC50 in [1], in data set [10] and in data set [14] were 0.07 nM, 520 nM and 30 nM, respectively. Also, the IC95 in [4] is 62 nM; in data set [7] it was 250 nM; in data set [8] it was no more than 8 nM; in data set [2], no more than 8 nM; in data set [13], no more than 8 nM; in [15], 62 nM. Moreover, the IC95 in data set [3] was no more than 8 nM. The compound further displayed a bioavailability in data set [5] of 65%. In [6], this compound had a CLint scaled of 22 mL/min/kg. Moreover, the concentration in [9] peaked (Cmax) at 17 µM. Also, the clearance in [11] was determined as 4.01 mL/min/kg. Moreover, the half-life in data set [12] is 52 min. The compound further displayed an AUC in data set [16] of 18.8 µM·h.
In data set [1], `CC(C)(c1cc2cnccc2o1)N1CCN(C[C@@H](O)C[C@@H](Cc2ccccc2)C(=O)N[C@H]2c3ccccc3OC[C@H]2O)[C@H](C(=O)Nc2ccccc2)C1` had an IC50 of 13.8 nM. Besides, the values for the IC95 in [2] and in [3] were greater than 1000 nM and 250 nM, respectively.
In the case of `CC(C)(c1cc2cnccc2o1)N1CCN(C[C@@H](O)C[C@@H](Cc2ccccc2)C(=O)N[C@H]2c3ccccc3OC[C@H]2O)[C@H](C(=O)NCc2ccccc2)C1`, it took 2.19 nM to reach half-maximal inhibition in data set [1] (IC50). Also, the IC95 in [2] is 250 nM; in [3] it was 125 nM.
Turning to `CC(C)(c1cc2cnccc2o1)N1CCN(C[C@@H](O)C[C@@H](Cc2ccccc2)C(=O)N[C@H]2c3ccccc3OC[C@H]2O)[C@H](C(=O)NCc2cccs2)C1`, the values for the IC95 in data set [2] and in [3] were 125 nM and 94 nM, respectively. The compound further gave an IC50 in data set [17] of 0.65 nM.
As for `CC(C)(c1cc2cnccc2o1)N1CCN(C[C@@H](O)C[C@@H](Cc2ccccc2)C(=O)N[C@H]2c3ccccc3OC[C@H]2O)[C@H](C(=O)NCC2CC2)C1`, in [1], the IC50 came out at 0.5 nM. The values for the IC95 in [2] and in data set [3] were 125 nM and 46 nM, respectively.
Turning to `O=C(N[C@H]1c2ccccc2C[C@H]1O)[C@H](Cc1ccccc1)C[C@H](O)CN1CCN(Cc2cccnc2)C[C@H]1C(=O)NCC(F)(F)F`, the IC95 in data set [4] is 62 nM; in data set [7], greater than 1000 nM; in data set [8], 125 nM; in [13] it was 62 nM; in [15], 500 nM.
Turning to `CC(C)CNC(=O)[C@@H]1CN(C(C)(C)c2cc3cnccc3o2)CCN1C[C@@H](O)C[C@@H](Cc1ccccc1)C(=O)N[C@H]1c2ccccc2OC[C@H]1O`, in [1], the IC50 is 0.4 nM. The IC95 in [2] came out at 125 nM; in data set [3], 15 nM.
In turn, `CCNC(=O)[C@@H]1CN(C(C)(C)c2cc3cnccc3o2)CCN1C[C@@H](O)C[C@@H](Cc1ccccc1)C(=O)N[C@H]1c2ccccc2OC[C@H]1O` came in with an IC50 in data set [1] of 0.61 nM. Also, the IC95 in data set [2] was determined as 62 nM; in [3] it was 31 nM.
For the compound `CC(C)(C)NC(=O)[C@@H]1CN(Cc2cccnc2)CCN1C[C@@H](O)C[C@@H](Cc1ccccc1)C(=O)N[C@H]1c2ccccc2C[C@H]1O`, the IC95 in data set [4] is greater than 1000 nM; in data set [7], greater than 1000 nM; in data set [8], 400 nM; in data set [13], 50 nM; in data set [15], greater than 1000 nM.
Regarding `CC(C)(C)NC(=O)[C@@H]1CN(C(C)(C)c2cc3cnccc3o2)CCN1C[C@@H](O)C[C@@H](Cc1ccccc1)C(=O)N[C@H]1c2ccccc2OC[C@H]1O`, the IC50 in data set [1] was determined as 0.08 nM; in data set [10], 2430 nM; in [14] it was 310 nM. Also, the IC95 in data set [4] was 125 nM; in data set [7] it was 500 nM; in data set [8], 16 nM; in [2], 31 nM; in [13] it was 9.2 nM; in [15], 125 nM. In [3], the IC95 is no more than 8 nM. The CLint scaled in data set [6] came to 34 mL/min/kg. The compound further came in with a Cmax in data set [9] of 8.8 µM. In data set [11], the clearance amounted to 14.2 mL/min/kg.
Regarding `CC(C)(c1cc2cnccc2o1)N1CCN(C[C@@H](O)C[C@@H](Cc2ccccc2)C(=O)N[C@H]2c3ccccc3OC[C@H]2O)[C@H](C(=O)NC2CC2)C1`, the IC50 in data set [1] came to 0.6 nM. For the same compound, the values for the IC95 in [2] and in data set [3] were 250 nM and 62 nM, respectively.
In the case of `CC(C)(c1cc2cnccc2o1)N1CCN(C[C@@H](O)C[C@@H](Cc2ccccc2)C(=O)N[C@H]2c3ccccc3OC[C@H]2O)[C@H](C(=O)NCC(F)(F)C(F)(F)F)C1`, the IC50 in data set [1] came to 0.14 nM. In addition, the IC95 is 62 nM in data set [2] and no more than 8 nM in data set [3].
